Measurements published in patent US6696559B1, “Antimicrobial peptides and methods of use” (The Regents of the University of California, priority 1996, dated 2004).
Entries after “also recorded” stand apart in the source; their conditions may differ. Where no end group is shown, it is not given here.

Assays:
E. coli = conditions: Selsted et al., J. Biol. Chem. 267:4292-4295, 1992; cited from earlier work
S. aureus = conditions: Selsted et al., J. Biol. Chem. 267:4292-4295, 1992; cited from earlier work
C. neoformans = assay: microbicidal suspension assay; type: cell-based
Method: (§1) Antimicrobial assay. E. coli ML35, S. aureus 502A, C. albicans, and C. neoformans were used as target organisms in a microbicidal suspension assay as previously described (Selsted, M. E., Genetic Engineering: Principles and Methods, J. K. Setlow, Plenum Press, New York, 1993, pp. 131-147).
(§2) Natural and synthetic BGP-A and synthetic BGP-A-amide were tested for their microbicidal activities against S. aureus 502A, E. coli ML35, C. albicans, and C. neoformans. Using a microbicidal suspension assay (Selsted, M. E., Genetic Engineering: Principles and Methods, J. K. Setlow, Plenum Press, New York, 1993, pp.131-147), each peptide was tested against the four test organisms with peptide concentrations ranging from 5-100 μg/ml. The bactericidal and fungicidal activities of the three peptide preparations were assessed using a standard microbicidal assay. Organisms were grown to mid-log phase, harvested, and suspended to 2×10^7 CFU/ml. The incubation mixture contained 1-2×10^6 CFU/ml, 10 mM sodium phosphate buffer, pH 7.4, and peptide at concentrations up to 100 μg/ml. After 1 h of incubation at 37° C. (4 h incubations for C. neoformans), serial 10-fold dilutions were plated on Trypticase Soy Agar (bacteria) or S. abaraud dextrose agar (fungi), and incubated for 24-48 h at 37° C. Killing was quantitated by colony counting, and plotted as a function of peptide concentration in the incubation.

S. aureus 502A = assay: microbicidal suspension assay; type: cell-based
Method: as §1, §2

C. albicans = assay: microbicidal suspension assay; type: cell-based
Method: as §1, §2

E. coli ML35 = assay: microbicidal suspension assay; type: cell-based
Method: as §1, §2

[1] = 1 h incubation, synthetic versus natural peptide, listed as synthetic BGP-A
[2] = peptide 5-100 μg/ml, 10 mM sodium phosphate buffer, pH 7.4, 1 h at 37° C., FIG. 7

| Substance | bactericidal activity (E. coli) | bactericidal activity (S. aureus) | microbicidal potency compared with natural BGP-A (C. neoformans; 4 h incubation, synthetic versus natural peptide, listed as synthetic BGP-A) | microbicidal activity (reduction in colony forming units) (C. neoformans; peptide 5-100 μg/ml, 10 mM sodium phosphate buffer, pH 7.4, 4 h at 37° C., FIG. 7) | microbicidal potency compared with natural BGP-A (S. aureus 502A; [1]) | microbicidal activity (reduction in colony forming units) (S. aureus 502A; [2]) | microbicidal potency compared with natural BGP-A (C. albicans; [1]) | microbicidal activity (reduction in colony forming units) (C. albicans; [2]) | microbicidal potency compared with natural BGP-A (E. coli ML35; [1]) | microbicidal activity (reduction in colony forming units) (E. coli ML35; [2]) |
| --- | --- | --- | --- | --- | --- | --- | --- | --- | --- | --- |
| indolicidin: novel tridecapeptide amide from bovine neutrophils, cationic, unusually rich in tryptophan (ILPWKWPWWPWRR-NH2; UniProt P33046 131-143, looked up) | potent bactericidal activity | potent bactericidal activity |  |  |  |  |  |  |  |  |
| YKIIQQWPHYRRV [BGP-A, thirteen-residue peptide antibiotic expressed in bovine granulocytes, …; tested as natural and synthetic preparations] |  |  | equal in potency; also recorded: equivalent killing activity | microbicidal | equal in potency; also recorded: equivalent killing activity | microbicidal | equal in potency; also recorded: equivalent killing activity | microbicidal | equal in potency; also recorded: equivalent killing activity | microbicidal |
